The text below walks through data of US20150150810A1, “TABLETS FOR COMBINATION THERAPY” (Gilead Sciences, Inc., priority 2009, published 2015).

Data set [1] is described as follows: Pharmacokinetic study of fixed-dose combinations of Formula I/Formula II/Formula III/Formula IV. It is filed as in vivo. Conditions: mean (CV %); for Cmax / AUC: in vivo. The protocol:
A pharmacokinetic study involving two fixed-dose combinations of the compounds of Formula I/Formula II/Formula III/Formula IV was also conducted. Doses for the fixed-dose combination of the compounds of Formula I/Formula II/Formula III/Formula IV were 150 mg/100 mg/200 mg/300 mg (Dose A) and 150 mg/150 mg/200 mg/300 mg (Dose B) respectively. Pharmacokinetic data for the compound of Formula II from the study involving the two fixed dose combinations (Dose A and Dose B) is provided in the following table.

Data set [2] can be described thus: Pharmacokinetic dose-ranging study of the compound of Formula II. The note with it: 100 mg dose. It is filed as in vivo. On the procedure: A pharmacokinetic dose-ranging study involving the compound of Formula II was conducted. Doses for the compound of Formula II for the dose-ranging study included 50 mg, 100 mg and 200 mg.
Data set [3] can be described thus: Chemical stability of Formula IV in tablet combinations. It is filed as physicochemical. From the text: Additionally, improper combinations of the compounds of Formula I, II, III, or IV in a bilayer tablet will also compromise the chemical stability of Formula IV. For example, Formula IV in the presence of silicon dioxide from the Formula II formulation will decompose Formula IV; and Formula IV in the in the presence of sodium lauryl sulphate from the Formula I formulation will decompose Formula IV.

Setting [4] is: Dose A: 150 mg/100 mg/200 mg/300 mg, n = 43.
Where [5] appears, read: Dose B: 150 mg/150 mg/200 mg/300 mg, n = 42.
Where [6] appears, read: in vivo, n = 11, arithmetic mean.

Turning to `CC(C)c1nc(CN(C)C(=O)N[C@@H](CCN2CCOCC2)C(=O)N[C@H](CC[C@H](Cc2ccccc2)NC(=O)OCc2cncs2)Cc2ccccc2)cs1` [Formula II], the Ctau in data set [1] (setting [4]) is reported as 10.8 (83.6) ng/mL; in data set [1] (setting [5]) it was 23.3 (103) ng/mL. The peak concentration (Cmax) was determined as 855 ng/mL in data set [1] (setting [4]), 1570 ng/mL in data set [1] (setting [5]) and 563 ng/mL in data set [2] (setting [6]). Besides, the AUC in data set [1] (Dose A: Formula I/II/III/IV 150 mg/100 mg/200 mg/300 mg, n = 43) amounted to 5150 ng·h/mL; in data set [1] (Dose B: Formula I/II/III/IV 150 mg/150 mg/200 mg/300 mg, n = 42), 10400 ng·h/mL; in data set [2] (setting [6]), 3440 ng·h/mL. Further, the CL/F in data set [2] (n = 11, arithmetic mean) is recorded as 33.2 L/h. Also, in data set [2] (n = 11, median), the T1/2 is reported as 3.12 h.
As for `CC(C)OC(=O)OCOP(=O)(CO[C@H](C)Cn1cnc2c(N)ncnc21)OCOC(=O)OC(C)C.O=C(O)/C=C/C(=O)O` [Formula IV, tenofovir disoproxil fumarate], the “chemical stability of Formula IV” value is reported as “compromises the chemical stability” in data set [3] (Formula I, II, III and IV combined in a mixture as mono layer tablet); “decompose” in data set [3] (in the presence of silicon dioxide from the Formula II formulation); “decompose” in data set [3] (in the presence of sodium lauryl sulphate from the Formula I formulation).
